# Test results reported in article PMC12584752, “Covalent fragment screening to inhibit the E3 ligase activity of bacterial NEL enzymes SspH1 and SspH2” (RSC Chemical Biology, 2025).
# Molecular target: SspH1 (161–700) (Salmonella typhimurium, UniProt D0ZVG2)
# Experiment: Round 1 intact protein LC-MS covalent fragment labelling screen and dilution series
# Assay type: binding
# Parameters: Recombinant IpaH9.8 (21–545) and SspH1 (161–700) were incubated at 0.5 μM; His-tag (N, cleaved yes); made in house; host or cells: E. coli BL21
# Details: round 1 screen; 0.5 μM SspH1, 50 μM fragments, 24 hours at 4 °C
# Description: A diverse library of 227 compounds with chloroacetamide warheads, featuring a diversity of molecular weight (162–321 Da) and clog P (−1.4 to 3.4) (Table S1), were screened against Salmonella and Shigella NEL E3 ligases using our intact protein liquid chromatography mass spectrometry (LC-MS) platform as previously described.[39,40] Briefly, recombinant SspH1 (161–700[30]) and IpaH9.8 (21–545[29]) (Fig. 1A and B) were incubated with 50 μM fragments for 24 hours at 4 °C before analysis by LC-MS (Fig. 1C). Raw counts were deconvoluted and the labelling percentage calculated by detection and comparison of protein and protein-fragment molecular weights.
# Fig. 1 Intact protein LCMS screening of covalent fragment library against NEL proteins. (A) Cartoon depicting conserved NEL E3 ligase domains; (B) overlaid structures of SspH1 (blue, PDB 9H6W[30]) and IpaH9.8 (green, PDB 6LOL[29]) aligned on NEL domain; (C) workflow of covalent fragment screening using intact LC-MS; (D) fragment labelling percentages for SspH1 and IpaH9.8 with fragments 1–3 highlighted. Recombinant IpaH9.8 (21–545) and SspH1 (161–700) were incubated at 0.5 μM with 50 μM fragments for 24 hours at 4 °C, before fragment labelling was analysed by intact LC-MS; (E) chemical structures of fragments 1–3.
# We next analysed the potency of compounds 4–10 against SspH1. The seven compounds were obtained as purified compounds (Table S2) and screened against SspH1 by intact LC-MS (Fig. 3A) with two-fold serial dilution (100–6.25 μM). To confirm which of the two cysteines in the SspH1 161–700 construct were labelled, we repeated the concentration response experiment with a catalytic cysteine mutant of SspH1 (C492K) (Fig. 3B). The complete abrogation of labelling confirmed that all […] compounds labelled the catalytic cysteine of SspH1.
# 1 μM IpaH9.8 or SspH1 were incubated with […] fragments for 24 hours at 4 °C, in 25 mM HEPES pH 7.5, 50 mM NaCl buffer. Intact protein LC-MS was performed as previously described.[40] The following deconvolution conditions were used for recombinant proteins studied in this work:
# Dilution series experiments were performed as for 1st round screening. 1 μM OTUD4, OTUD5 or 0.5 μM HOIL, UbcH5A, SspH2, SspH1 C492K were incubated with 100–6.25 μM compounds for 24 hours at 4 °C, in 25 mM HEPES pH 7.5, 50 mM NaCl buffer. Intact protein LC-MS was performed as previously described.[40] The following deconvolution conditions were used for recombinant proteins studied in this work: […]
# Chain of SspH1 (161–700) (D0ZVG2 161-700): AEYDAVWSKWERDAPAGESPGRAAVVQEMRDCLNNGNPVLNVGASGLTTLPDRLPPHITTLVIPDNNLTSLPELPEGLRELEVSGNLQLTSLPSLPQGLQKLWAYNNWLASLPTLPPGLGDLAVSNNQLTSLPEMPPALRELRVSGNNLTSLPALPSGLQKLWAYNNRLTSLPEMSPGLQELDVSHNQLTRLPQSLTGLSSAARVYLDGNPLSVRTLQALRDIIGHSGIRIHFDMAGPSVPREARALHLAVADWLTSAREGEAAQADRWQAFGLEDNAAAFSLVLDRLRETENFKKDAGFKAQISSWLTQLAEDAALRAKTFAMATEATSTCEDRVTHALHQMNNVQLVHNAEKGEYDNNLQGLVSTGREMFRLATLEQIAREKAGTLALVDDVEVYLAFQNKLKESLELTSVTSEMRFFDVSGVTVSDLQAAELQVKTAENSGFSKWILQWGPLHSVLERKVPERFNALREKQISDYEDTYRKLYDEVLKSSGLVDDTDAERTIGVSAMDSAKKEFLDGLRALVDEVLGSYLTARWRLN
row,Structure (SMILES),protein labelling percentage
1,Cc1cccn2cc(CCNC(=O)CCl)nc12.Cl [fragment 3],greater than 30%
2,O=C(CCl)N1CCCN(C(=O)c2ccc(Cl)cc2)CC1 [fragment 1],greater than 30%
3,Cl.O=C(CCl)N1CCC(n2nc3ccccc3n2)CC1 [fragment 2],greater than 30%
